Data published in patent US9682070B2, “Method and compositions for treatment or prevention of inflammatory conditions” (University of Rochester, priority 2007, dated 2017).
“Also recorded” adds a separate entry of the source.

Legend:
[1] = test system: IκBα phosphorylation and degradation; experiment: Western blot of TNFα-induced IκBα phosphorylation and degradation in VSMCs; type: cell-based; settings: rat aortic VSMCs; TNFα 10 ng/ml; vinpocetine 50 μM, nifedipine 30 μM, IC86340 15 μM, EGTA 2 mM, BAPTA/AM 30 μM
Description: (§1) Rat aortic VSMCs were treated with TNFα (10 ng/ml) for different time periods (0-30 minutes) as indicated in the presence or absence of vinpocetine ([…]). Western Blotting analysis was carried out to evaluate the levels of phosphorylated IκBα, total IκBα- and β-actin. […] IKK kinase activity was analyzed by an immune complex kinase assay. […] VSMCs were treated with TNFα for 10 min in the presence of various doses of vinpocetine as indicated. FIG. 8D illustrates the relative IKK activity as indicated. Intensities of the GST-IκBα bands in the autoradiogram were measured by densitometric scanning. Results were normalized to the control ([vinpocetine]=0) that is arbitrarily set to 100%. *p<0.05, **p<0.01 vs. vitipocetine at zero. FIGS. 8E-H illustrate the effects of vinpocetine on NF-κB activation induced by expressing constitutive active form of either MEKK1 (CA-MEKK1) (FIG. 8E), IKKα (CA-IKKα) (FIG. 8F), IKKβ (CA-IKKβ) (FIG. 8G), or WT p65 (FIG. 8H) in VSMCs.
(§2) Rat aortic VSMCs were treated with TNFα (10 ng/ml) for 10 minutes in the presence of either 50 μM vinpocetine, 30 μM nifedipine (Ca^2+ channel blocker), 15 μM IC86340 (PDE1 inhibitor), 2 mM EGTA (extracellular Ca^2+ chelator), or 30 μM BAPTA/AM (intracellular Ca^2+ chelator). […] Western Blotting analysis was carried out to evaluate the levels of phosphorylated IκBα total IκBα and β-actin. Data represent at least three independent experiments.
Cells lysates were prepared in the buffer containing 20 mM Tris-HCl (pH8.0), 0.5 M NaCl, 0.25% Triton X-100, 1 mM EDTA, 1 mM EGTA, 10 mM-glycerophosphate, 10 mM NaF, 100 μM Na3VO4, 1 mM benzamidine, 2 μM PMSF, 1 mM DTT and protease inhibitor cocktail (Sigma, MO. USA), by scraping, sonication, and centrifugation at 12,000 g for 15 min. Supernatant were collected and then subjected to SDS-PAGE and Western blot analysis with indicated antibodies.

[2] = test system: IKK; experiment: IKK immune complex kinase assay from TNFα-treated VSMCs; type: cell-based, rat; settings: for effect on the ability of vinpocetine on IKK kinase activity, IκB phosphorylation, IκB degradation or NF-κB-dependent transcriptional activity: co-treatment with vinpocetine; for TNFα-induced IKK kinase activity: rat aortic VSMCs treated with TNFα 10 min in the presence of compound
Description: as §1, §2
Cell lysates were prepared as described above. 1 mg of cell lysates were incubated with 1-2 μg of anti-IKKα (Santa Cruz, Calif., USA) for 1-2 h, followed by 50μl of 50% of slurry protein A/G plus-Agarose for another 1 h or overnight at 4° C. Immunoprecipitants were then washed two times with lysis buffer and once with kinase buffer without ATP. In vitro kinase assay were performed in kinase buffer containing 20 mM HEPES (pH 7.7), 2 mM MgCl2, 2 mM MnCl2, 10 μM ATP, 5 μCi of [γ-^32P]ATP (Amersham Biosciences, NJ, USA), 10 mM glycerophosphate, 10 mM NaF, 100 μM Na3VO4, 1 mM benzamidine, 2 μM PMSF, 1 mM DTT and protease inhibitor cocktail (Sigma, MO, USA) at 30° C. for 30-60 min, in the presence of substrate GST-IκBα (AA 1-54) (kindly provided by Dae-Myung Jue, Catholic University of Korea). Proteins were separated by 12% SDS-PAGE and subjected to autoradiography. Phosphorylation of GST-IκBα was quantified in NIH Image 1.60.
Because IKK is known as the major upstream kinase for IκBα phosphorylation and degradation, whether vinpocetine inhibits IκB phosphorylation and degradation via inhibition of IKK was determined. TNFα-induced activation of IKK was confirmed by performing IKK kinase assay in TNFα-stimulated VSMCs. The crude cell lysates from treated VSMCs were first immunoprecipitated with an anti-IKKα antibody and IKK kinase activity was then measured in vitro with IKK immune complexes incubated with the substrate GST-IκBα in the presence of [γ-^32P]-ATP.

[3] = test system: NF-κB-dependent promoter activity; experiment: NF-κB-Luc dual luciferase reporter assay in rat aortic VSMCs
[4] = test system: pro-inflammatory mediators at mRNA levels; experiment: Q-PCR of TNFα-induced pro-inflammatory mediators in rat aortic VSMCs; type: cell-based; settings: TNFα 10 ng/ml 6 hours, vinpocetine 50 μM
Description: (§3) Expression of TNFα, IL-1β, IL-8, MCP-1 and VCAM-1, ICAM-1, MIP-1 at mRNA levels were measured by Real-time quantitative RT-PCR (Q-PCR).
(§4) Total RNA was isolated with TRIzol reagent (Invitrogen) by following the manufacturer's instructions. For the reverse transcription reaction, TaqMan reverse transcription reagents (Applied Biosystems) were used. In brief, the reverse transcription reaction was performed for 60 min at 37° C., followed by 60 min at 42° C. by using oligo (dT) and random hexamers. PCR amplifications were performed by using SYBR Green Universal Master Mix. In brief, reactions were performed in duplicate containing 2× Universal Master Mix, 1 μl of template cDNA and 100 nM primers in a final volume of 12.5 μl, and they were analyzed in a 96-well optical reaction plate (Applied Biosystems). The relative quantities of mRNAs were obtained by using the comparative Ct method and were normalized with predeveloped Taqman assay reagent rat or mouse glyceraldehydes-3-phosphate dehydrogenase or human cyclophilin as an endogenous control (Applied Biosystems).

[5] = test system: pro-inflammatory mediators at mRNA levels; experiment: Q-PCR of TNFα-induced pro-inflammatory mediators in HUVECs; type: cell-based, human; settings: TNFα 10 ng/ml 6 hours, vinpocetine 50 μM
Description: as §3, §4

[6] = test system: pro-inflammatory mediators at mRNA levels; experiment: Q-PCR of TNFα-induced pro-inflammatory mediators in A549 cells; type: cell-based, human; settings: TNFα 10 ng/ml 6 hours, vinpocetine 50 μM
Description: as §3, §4

[7] = test system: pro-inflammatory mediators at mRNA levels; experiment: Q-PCR of TNFα-induced pro-inflammatory mediators in RAW264.7; type: cell-based, mouse; settings: TNFα 10 ng/ml 6 hours, vinpocetine 50 μM
Description: as §3, §4

[8] = test system: U937 monocytes adhering to HUVECs; experiment: Monocyte adhesion assay; type: cell-based, human; settings: 50 μM vinpocetine 30 min, then TNFα 10 ng/ml 6 hours
[9] = test system: monocyte chemotaxis to VSMCs; experiment: Monocyte chemotaxis assay (transwell migration, Boyden chamber); type: cell-based, rat; settings: various doses; TNFα 10 ng/ml 9 hours; VSMC-conditional medium
[10] = test system: LPS-induced lung inflammation; experiment: Mouse model of lung inflammation induced by LPS; type: in vivo; settings: mice
[11] = test system: TNFα-induced lung inflammation; experiment: Mouse model of lung inflammation induced by TNFα; type: in vivo; settings: mice; TNFα i.t. (500 ng per mouse)
Description: Lung tissues were collected and then stored at -80° C. for mRNA expression analysis. For polymorphonuclear neutrophil (PMN) recruitment analysis, broncho-alveolar lavage (BAL) was performed by cannulating the trachea with sterilized PBS, and cells from BAL was stained with Hemacolor (EM Science) after cytocentrifugation (Shandon Cytospin4, Thermo Electronic Co.). Three mice were used for each inoculation group. All animal experiments were approved by the institutional Animal Care and Use Committee at University of Rochester.

[12] = test system: NF-κB activation; experiment: NF-κB luciferase activity induced by CA-MEKK1, CA-IKKα, CA-IKKβ or WT p65 in VSMCs; type: cell-based, rat
[13] = test system: IKK; experiment: In vitro IKK kinase assay, compound applied directly to the IKK immune complex; type: biochemical, rat; settings: IKK immune complex in the test tube
[14] = test system: IKK; experiment: In vitro IKK kinase assay in the presence of cell lysates from vinpocetine-treated VSMCs; type: biochemical, rat
Description: Intensities of the GST-IκBα bands in the autoradiogram were measured by densitometric scanning.

[15] = test system: cell morphology and viability; experiment: Cytotoxic effects on cell morphology and viability; type: cell-based; settings: at the tested doses
[16] = test system: NF-κB-dependent promoter activity; experiment: IL-1- and LPS-induced NF-κB-dependent promoter activity; type: cell-based
[17] = patients, literature; cited from earlier work

## CC(=O)OCOC(=O)CN(CC(=O)OCOC(C)=O)c1ccccc1OCCOc1ccccc1N(CC(=O)OCOC(C)=O)CC(=O)OCOC(C)=O [BAPTA/AM]
[1]
  TNFα-induced IκBα phosphorylation and degradation: none of them exhibited any significant inhibitory effects
[2]
  effect on the ability of vinpocetine on IKK kinase activity, IκB phosphorylation, IκB degradation or NF-κB-dependent transcriptional activity: did not significantly affect
  TNFα-induced IKK kinase activity: none of them exhibited any significant inhibitory effects

## O=C(O)CN(CCOCCOCCN(CC(=O)O)CC(=O)O)CC(=O)O [EGTA]
[1]
  TNFα-induced IκBα phosphorylation and degradation: none of them exhibited any significant inhibitory effects
[2]
  effect on the ability of vinpocetine on IKK kinase activity, IκB phosphorylation, IκB degradation or NF-κB-dependent transcriptional activity: did not significantly affect
  TNFα-induced IKK kinase activity: none of them exhibited any significant inhibitory effects

## NC1=N[C@H](O)[C@H]2[C@H]3O[C@]4(O)O[C@@H]([C@@H](O)[C@@]2(N1)[C@@H]4O)[C@]3(O)CO [tetrodotoxin]
[3]
  effect on the effect of vinpocetine on NF-κB-dependent transcription: did not alter

## CCOC(=O)C1=C[C@]2(CC)CCCN3CCc4c(n1c1ccccc41)[C@@H]32 [vinpocetine, (+)-vinpocetine]
[4]
  TNFα-induced expression of TNFα, IL-1β, IL-8, MCP-1 and VCAM-1 mRNA: potently inhibited
[5]
  TNFα-induced expression of TNFα, IL-1β, IL-8, MCP-1, VCAM-1 and ICAM-1 mRNA: inhibit
[6]
  TNFα-induced expression of TNFα, IL-1β and IL-8 mRNA: inhibit
[7]
  TNFα-induced expression of TNFα, IL-1β and MIP-2 mRNA: inhibit
[8]
  monocyte adhesion to HUVECs: markedly inhibited
[9]
  monocyte chemotaxis to VSMCs induced by TNFα: inhibited monocyte chemotaxis to VSMCs induced by TNFα in a dose-dependent manner
[10]; LPS 2 μg/mouse i.t., vinpocetine 2.5, 5, 10 mg/kg i.p.
  induction of TNFα, IL-1β and MIP-2 mRNA in the lungs: dose-dependently inhibited; also recorded: significantly inhibited
[10]; LPS i.t., vinpocetine 10 mg/kg i.p.
  PMN infiltration in BAL fluids: significantly inhibited
[11]
  induction of inflammatory mediators and PMN infiltration in the lungs: also inhibited
[1]
  TNFα-induced IκBα phosphorylation and degradation: markedly inhibited
[2]
  TNFα-induced IKK kinase activity: inhibited TNFα-induced IKK activity in a dose-dependent manner
[12]; constitutively active IKKα
  NF-κB activation induced by CA-IKKα: inhibited
[12]; constitutively active IKKβ
  NF-κB activation induced by CA-IKKβ: inhibited
[12]; constitutively active MEKK1
  CA-MEKK1-induced NF-κB activation: significantly inhibited
[13]
  IKK activity, compound directly applied to IKK: No significant inhibitory effect; also recorded: did not inhibit IKK activity
[14]; cell lysates
  inhibition of IKK activity by cell lysates from vinpocetine-treated cells: 50%
  vinpocetine treatment concentration of lysate required for a significant effect on IKK inhibition ex vivo: 100 µM
[14]; lysates of VSMCs preincubated with vinpocetine
  IKK activity in the presence of cell lysates from vinpocetine-treated cells: inhibited IKK activity
[15]
  cytotoxic effects on cell morphology and viability: no significant cytotoxic effects
[16]
  IL-1- and LPS-induced NF-κB-dependent promoter activity: inhibited
[17]
  side effects, toxicity or contraindications at the therapeutic doses: no reports of significant side effects, toxicity or contraindications
[3]; rat aortic VSMCs, TNFα 10 ng/ml 6 hours, various doses
  TNFα-induced NF-κB-dependent promoter activity: potently inhibited
